Assay results from article PMC5402304, “Oxoaporphine Metal Complexes (Co^II, Ni^II, Zn^II) with High Antitumor Activity by Inducing Mitochondria-Mediated Apoptosis and S-phase Arrest in HepG2” (Scientific Reports, 2017).

What was measured:
HepG2 [1] = test: MTT cytotoxicity assay, HepG2; assay type: cell-based, human; conditions: for inhibitive ratio: HepG2, 20 μmol/L, 48 h; for IC50: HepG2, 48 h, MTT
Procedure: (§1) The in vitro cytotoxicity of OD, 1–3 and the corresponding metal salts were determined by MTT assay towards a panel of human tumor cells including HepG2, T-24, BEL-7404, MGC80-3, SK-OV-3/DDP and normal HL-7702 cells. As the positive control, cisplatin was dissolved at a concentration of 1 mM in 0.154 M NaCl[32].
(§2) The human tumor cell lines (BEL-7404, HepG2, MGC80–3, T-24, SK-OV-3/DDP and HeLa cells) and the human normal liver cell line HL-7702 were obtained from Shanghai Cell Bank in Chinese Academy of Sciences. Cells were cultured in Dulbecco’s modified Eagle’s medium (DMEM) or RPMI-1640 medium, which supplemented with 10% fetal bovine serum (FBS) and 100 U/mL penicillin and streptomycin. Cells were cultured at 37 °C in a humidified atmosphere with 5% CO2/95% air. Tested compounds (2.0 mM) were prepared as DMSO stock solution before they were diluted to working concentrations by PBS buffer (containing 0.5% DMSO), while cisplatin dissolved in 0.9% sodium chloride solution was used as positive controls.
(§3) Cells in their logarithmic phase were seeded in 96-well plates with 5.5 × 10^3/180 μL per well for 24 h. Then 20 μL of compounds at various concentrations were added to each well to achieve final concentrations of 1.25, 2.5, 5.0, 10.0, and 20.0 μM. All the cells were incubated with test compounds for another 48 h before MTT assay. Control wells contained media with 0.5% DMSO. After 48 h of cultivation, 10 μL of MTT (5 mg/mL in PBS) was added to each well, and cells were incubated at 37 °C for 6 h. The contents in the wells were pipetted out carefully, and the formazan crystals formed were dissolved in 100 μL of DMSO, and the absorbance was measured by enzyme labeling instrument with 490 nm/630 nm double wavelength measurement. The IC50 value was defined as a drug concentration killing 50% cells in comparison with untreated controls, which was calculated by the Bliss method (n = 5). All tests were repeated in at least three independent trials.

T-24 = test: MTT cytotoxicity assay, T-24; assay type: cell-based, human; conditions: for inhibitive ratio: T-24, 20 μmol/L, 48 h; for IC50: T-24, 48 h, MTT
Procedure: as §1, §2, §3

BEL-7404 = test: MTT cytotoxicity assay, BEL-7404; assay type: cell-based, human; conditions: for inhibitive ratio: BEL-7404, 20 μmol/L, 48 h; for IC50: BEL-7404, 48 h, MTT
Procedure: as §1, §2, §3

MGC80-3 = test: MTT cytotoxicity assay, MGC80-3; assay type: cell-based, human; conditions: for inhibitive ratio: MGC80-3, 20 μmol/L, 48 h; for IC50: MGC80-3, 48 h, MTT
Procedure: as §1, §2, §3

SK-OV-3/DDP = test: MTT cytotoxicity assay, SK-OV-3/DDP; assay type: cell-based, human; conditions: 48 h; for inhibitive ratio: SKOV-3/DDP, 20 μmol/L; for IC50: SK-OV-3/DDP, MTT
Procedure: as §1, §2, §3

HL-7702 = test: MTT cytotoxicity assay, normal liver cells HL-7702; assay type: cell-based, human; conditions: 48 h; for inhibitive ratio: HL-7702, 20 μmol/L; for IC50: HL-7702 normal liver cells, MTT
Procedure: as §1, §2, §3

HepG2 xenograft = HepG2 xenograft nude mice model, tumor growth inhibition; assay type: in vivo, BALB/c nude mice; conditions: 2.0 mg/kg ip every two days
Procedure: BALB/c nude mice (male, 17–20 g, 5–6 weeks old) were supplied by Guangxi Medical University Laboratory Animal Centre (Guangxi, China, approval no. SCXK 2014–0002 and SYXK 2014–0003). All of the experimental procedures were carried out according to the NIH Guidelines for the Care and Use of Laboratory Animals. Animal experiments were approved by the Animal Care and Use Committee of Guangxi Medical University. Animal were housed at IVC system (individual ventilated caging) with conditions of constant photoperiod (12 h light/12 h dark at 25−28 °C and 45−65% humidity). The xenograft tumor model was established in the same way as we reported before[30]. The maximum solubility of 3 in DMSO/saline solvent (v/v, 5/100) with administration volume 0.8 mL/20 g was used as the high dose (6.0 mg/kg) group (n = 6). Meanwhile low dose group mice got 3.0 mg/kg, intraperitoneal injection every day, and the control group received corresponding solvent. The positive control group was administered with cisplatin at 2.0 mg/kg every two days by intraperitoneal injection (cisplatin dissolved in saline).
The tumor volumes and body weight were measured every 3 days, and tumor size was calculated as volume = (w^2l)/2, where w is the width and l is the length in mm of tumor[70]. On day 21, the mice were sacrificed, and the tumor tissue was dissected out and weighted. The in vivo antitumor activity is evaluated by two indicators[71][72]: the tumor relative increment rate (T/C = TRTV/CRTV × 100%) and tumor weight inhibition rate [IR = (Wc − Wt)/Wc × 100%,], where TRTV and CRTV were the RTV of treated group and control group, respectively (RTV: relative tumor volume, RTV = Vt /V0); Wt and Wc are the average tumor weight of complex-treated and vehicle controlled group, respectively.

[2] = Body weight of mice in the HepG2 xenograft model; assay type: in vivo, BALB/c nude mice; conditions: 2.0 mg/kg ip every two days; permissible value 20%
Procedure: To further evaluate the in vivo antitumor efficacy of these complexes, 3 was selected to inhibit tumor growth in a HepG2 xenografts model. The mice were randomized into control group, 3-treated groups and positive control group (n = 6). Once the tumor had grown to an average volume of about 100 mm^3, two group of nude mice were injected intraperitoneally (ip) of 3 at a high dose (6.0 mg/kg) and a low (3.0 mg/kg) dose daily for 20 days, respectively. Cisplatin was used as positive control injected at 2.0 mg/kg every two days, while control group received solvents only.
BALB/c nude mice (male, 17–20 g, 5–6 weeks old) were supplied by Guangxi Medical University Laboratory Animal Centre (Guangxi, China, approval no. SCXK 2014–0002 and SYXK 2014–0003). All of the experimental procedures were carried out according to the NIH Guidelines for the Care and Use of Laboratory Animals. Animal experiments were approved by the Animal Care and Use Committee of Guangxi Medical University. Animal were housed at IVC system (individual ventilated caging) with conditions of constant photoperiod (12 h light/12 h dark at 25−28 °C and 45−65% humidity). The xenograft tumor model was established in the same way as we reported before. […]
The tumor volumes and body weight were measured every 3 days, and tumor size was calculated as volume = (w^2l)/2, where w is the width and l is the length in mm of tumor[70]. […]

HepG2 cells = test: Comet assay for DNA damage; assay type: cell-based, human; design: unit not given here; conditions: HepG2, 1.0 μM, 24 h
Procedure: After the observation of significant S-phase arrest caused by 1–3, the study of DNA damage assay is necessary. The single cell gel electrophoresis technique (comet assay) is a simple, sensitive, reliable, and rapid method to detect DNA damage in eukaryotic cell[39]. As shown in Table 3 and Fig. 6, 1–3 at 1.0 μM induced DNA damage (fragmentation or unwinding) appeared as fluorescent comets with remarkable increase of tails size, especially for 3.
The comet assay is a simple method for measuring DNA strand breaks in cells. The comet assay reagent kit was purchased from Trevigen, and the experiment was carried out according to the manufacturer’s instructions. After treatment with OD and 1–3 at 1.0 μM, HepG2 cells were harvested and suspended at 1 × 10^6 Hep-G2 cells/mL in PBS. The cells suspension was mixed with melted LM agarose at a ratio of 1:10 (v/v). An aliquot (75 μL) of the mixture was immediately pipetted onto the slide (Comet Slide TM). After refrigeration for 30 min, the slide was immersed in pre-chilled lysis solution and left on ice for 60 min, followed by immersing in freshly prepared alkaline solution (300 mM NaOH, 1 mM EDTA, pH > 13) for 60 min on ice in darkness. After DNA unwinding, the slide was subjected to alkaline solution for electrophoresis in a Savant ps 250 system set at 300 mA and 1 volt/cm for 30 min. After electrophoresis, the slide was rinsed with distilled H2O, fixed in 70% ethanol for 5 min and air-dried overnight. DNA was stained with SYBR Green I (Trevigen) and visualized under a fluorescence microscope (Nikon, Eclipse E600).

HepG2 [3] = test: Cell apoptosis assay by flow cytometry, Annexin V-FITC/PI; assay type: cell-based, human; conditions: HepG2, 5.0 μM, 24 h
Procedure: The quantitative analysis of apoptotic HepG2 induced by 1–3 (1.0, 2.0 and 5.0 μM) and their corresponding metal salts (5.0 μM) after 24 h treatment, were investigated by flow cytometry and Annexin V-FITC/PI double staining. As depicted in Figs 7 and S6, 1–3 caused a significant increase in apoptotic cells comparing to the untreated cells.
Cell cycle progression and apoptosis were determined by flow cytometric analysis. (a) Cell cycle arrest assay: HepG2 cells in their logarithmic phase were plated into 50 mL plates at a final density of 5−6 × 10^6 cells/well overnight, then they were treated with various doses (0.25, 0.5 and 1.0 μM) of 1–3 for another 24 h. Cells were trypsinized, collected, and fixed in ice-cold 75% ethanol at −20 °C overnight. After centrifugation, the fixed cells were rinsed with ice-cold phosphate buffered saline (PBS), and resuspended in 0.5 mL of PBS containing 100 μg/mL RNase, 50 μg/mL propidium iodide (PI) in the dark for 5−10 min. The cell cycle distribution was analyzed by FACS Calibur flow cytometer (BD) and calculated using ModFIT LT software. (b) Apoptosis assay: 1 × 10^5 HepG2 cells were plated in 6-well plates, after incubation for 24 h with complexes 1–3 at 1.0, 2.0 and 5.0 μM, cells were collected, and Apoptosis Detection kit FITC Annexin V was used to analyze the cell apoptosis according to the manufacturer’s instructions.

caspase-3 = test: Caspase-3 activation by flow cytometry (CaspGLOW); assay type: cell-based, human; conditions: HepG2, 1.0 μM, 24 h; control 4.2%
Procedure: (§4) Caspase family is closely related to the cell apoptosis via the mitochondrial pathway, especially caspases-3, -8 and -9. To better understand the antitumor mechanisms, it needs to confirm whether caspase-3, -8 and -9 are activated when the tumor cells are treated with 1–3.
(§5) The measurement of caspase-3, -8 and -9’s activities was performed by CaspGLOW fluorescein active caspase-3, -8 and -9 staining kit. HepG2 cells were treated with 1 μM 1–3 for 24 h, harvested at a density of 1 × 10^6 cells/mL, and then suspended in 300 μL volume with PBS. To the suspension, 1 μL of caspase-3 inhibitor (FITC-DEVD-FMK), caspase-8 inhibitor (FITC-IETD-FMK) or caspase-9 inhibitor (FITC-LEHD-FMK) was consequently added and incubated for 1 h at 37 °C in 5% CO2 incubator. The cells were then examined by a FACSAria II flow cytometer equipped with a 488 nm argon laser. The results were represented as the percent change on the activity compared with the control.

caspase-8 = test: Caspase-8 activation by flow cytometry (CaspGLOW); assay type: cell-based, human; conditions: HepG2, 1.0 μM, 24 h; control 1.8%
Procedure: as §4, §5

caspase-9 = test: Caspase-9 activation by flow cytometry (CaspGLOW); assay type: cell-based, human; conditions: HepG2, 1.0 μM, 24 h; control 1.9%
Procedure: as §4, §5

Molecule | inhibitive ratio (HepG2 [1]) | inhibitive ratio (T-24) | inhibitive ratio (BEL-7404) | inhibitive ratio (MGC80-3) | inhibitive ratio (SK-OV-3/DDP) | inhibitive ratio (HL-7702) | IC50 (HepG2 [1]) | IC50 (T-24) | IC50 (BEL-7404) | IC50 (MGC80-3) | IC50 (SK-OV-3/DDP) | IC50 (HL-7702) | Comet length (HepG2 cells) | Olive tail moment (HepG2 cells) | Tail length (HepG2 cells) | Tail moment (HepG2 cells) | population of apoptotic cells (HepG2 [3]) | proportion of activated caspase-3 (caspase-3) | proportion of activated caspase-8 (caspase-8) | proportion of activated caspase-9 (caspase-9) | other results
[Co+2].[O-][Cl+3]([O-])([O-])[O-].[O-][Cl+3]([O-])([O-])[O-] [Co(ClO4)2, reference compound] | 32.87±0.13% | 36.23±0.09% | 23.29±0.09% | 24.74±0.03% | 21.74±0.03% | 45.91±0187% |  |  |  |  |  |  |  |  |  |  |  |  |  |  | 
[Ni+2].[O-][Cl+3]([O-])([O-])[O-].[O-][Cl+3]([O-])([O-])[O-] [Ni(ClO4)2, reference compound] | 32.57±0.29% | 37.86±0.19% | 32.31±0.07% | 16.35±0.09% | 11.25±0.12% | 50.14±0.06% |  |  |  |  |  |  |  |  |  |  |  |  |  |  | 
[O-][Cl+3]([O-])([O-])[O-].[O-][Cl+3]([O-])([O-])[O-].[Zn+2] [Zn(ClO4)2, reference compound] | 30.94±0.39% | 28.19±0.13% | 24.07±0.15% | 17.63±0.07% | 12.33±0.05% | 43.18±0.19% |  |  |  |  |  |  |  |  |  |  |  |  |  |  | 
N.N.[Cl][Pt][Cl] [cisplatin, reference compound] | 71.93±0.83% | 75.26±1.00% | 76.07±2.68% | 65.58±0.09% | 15.13±0.07% | 68.96±1.34% | 7.72 ± 0.83 µM | 7.48 ± 0.26 µM | 10 ± 0.53 µM | 16 ± 1.53 µM | 66 ± 1.53 µM | 5.18 ± 0.68 µM |  |  |  |  |  |  |  |  | IR (tumor weight inhibition rate) (HepG2 xenograft): 65.8%; drop in body weight [2]: 25.8%
[Co(OD)2(H2O)2](ClO4)2 [Complex 1] | 88.34± 1.03% | 85.35±0.73% | 63.96±0.78% | 61.54±0.33% | 78.17±1.69% | 56.73±0.14% | 0.66 ± 0.11 µM | 0.45 ± 0.17 µM | 8.98 ± 0.15 µM | 1.38 ± 0.14 µM | 0.26 ± 0.03 µM | 8.11 ± 0.55 µM | 65.45 ± 6.54 | 3.67 ± 2.09 | 8.01 ± 4.98 | 4.65 ± 1.34 | 33.1% | 45.1% | 35.3% | 27.7% | 
[Ni(OD)2(CH3OH)2](ClO4)2 [Complex 2] | 87.68 ±0.92% | 82.31±0.60% | 69.38±0.65% | 71.86±0.28% | 84.44±0.65% | 72.34±0.22% | 0.2 ± 0.09 µM | 0.23 ± 0.13 µM | 9.66 ± 0.35 µM | 2.86 ± 0.29 µM | 0.18 ± 0.03 µM | 5.35 ± 0.34 µM | 99.56 ± 10.57 | 20.56 ± 7.54 | 45.69 ± 8.27 | 29.52 ± 8.66 | 26.1% | 39.9% | 36.7% | 36.0% | 
